Reference: patent publication US20230201151A1, “FORMULATIONS AND METHODS FOR TREATING ACUTE RESPIRATORY DISTRESS SYNDROME, ASTHMA, OR ALLERGIC RHINITIS” (UNIVERSITY OF FLORIDA RESEARCH FOUNDATION, INC., priority 2020, published 2023)

Test system: HBECs
Assay: TEER (epithelial barrier function) in differentiated HBECs, Ussing chamber
Type: cell-based, human
Experimental: High individual variation in benzamil-sensitive current and TEER in HBECs. In an Ussing chamber-based experimental design, basal short-circuit current (Isc) and transepithelial electrical resistance (TEER) were recorded in differentiated HBECs from two lung donors that were grown on snapwells at an air-liquid interface for 28 to 35 days. Benzamil, a potent ENaC blocker was used to determine ENaC activity by calculating benzamil-sensitive Isc from changes in Isc that occur 15 minutes after adding 6 μM benzamil to the apical side of cells. […] Therefore, normalized data were used for all subsequent experiments for statistical analyses relating to FIGS. 13-18.
Basal treatment with cytokines [IL-13 (Abcam), IL-4 (PeproTech), TNF-α, IFN-γ and TGF-β1 (R&D Systems)] diluted in ALI medium started as early as day 14 post differentiation. Individual cytokines or cytokine cocktails were added to the culture medium at the desired concentrations and cells were incubated with the cytokines for a maximum of 16 days. ALI medium containing cytokines was changed every two days. Age-matched HBECs were assigned to the following treatment groups:
II Time-dependent studies: These studies were done using a concentration that ensured maximum inhibition of benzamil-sensitive Isc and TEER. HBECs were treated with respective cytokines for 2, 4, 6, 8, 10, 12, 14, or 16 days. IFN-γ, TNF-α or TGF-β1 at 1 ng/mL, IL-13 at 20 ng/mL and IL-4 at 2 ng/mL were used.
III Cytokine cocktails: were prepared using IFN-γ and TNF-α at 0.05, 0.5, 2.5, 5 and 10 ng/mL while TNF-α, IFN-γ and TGF-β1 at 1 ng/mL for each of the cytokines was added to the culture media for 7 days.
Ussing chamber experiments: Snapwells with differentiated HBECs that were incubated with cytokines or age-matched HBECs without cytokine exposure were mounted in Ussing chambers (Physiologic Instruments), and cells were either bathed in isotonic ringer solution containing 113.8 mM Na^+, 93.6 mM Cl^−, 25 mM HCO3^−, 5.2 mM K^+, 2.4 mM HPO4^−, 0.4 mM H2PO4^−, 1.2 mM Mg^2+, 1.2 mM Ca^2+, and 75 mM mannitol, or in AA-EC01. Glucose (5 mM) was added to the basal side, and chambers were bubbled with 95% O2 and 5% CO2 at 37° C. AA-EC01 contained 8 mM lysine, 8 mM tryptophan, 8 mM arginine, 8 mM glutamine, and 1.2 mM tyrosine, and AANC contained 8 mM leucine, 8 mM cysteine, 8 mM isoleucine, 8 mM aspartic acid and 8 mM glutamate (Ajinomoto), both diluted in an electrolyte solution containing 113.8 mM Na^t, 93.6 mM Cl^−, 25 mM HCO3^−, 5.2 mM K^+, 2.4 mM HPO4^−, 0.4 mM H2PO4^−, 1.2 mM Mg′, 1.2 mM Ca^2+ and 40 mM mannitol at pH 7.4 and 300 mOsm. Cell cultures were allowed to equilibrate in the Ussing chambers for 30 minutes while continuously voltage clamped to 0 mV. Basal short circuit current (Isc) and transepithelial electrical resistance (TEER) were recorded at 30-second intervals, and benzamil-sensitive Isc was calculated from the difference of basal Isc recorded after 30 minutes and Isc measured at 15 minutes after adding 6 μM of benzamil (ThermoFisher) to the apical side.
Statistical analysis: Results are presented as mean±standard error of mean (SEM). Analyses were performed with OriginPro 2018 software package. For each treatment group, values were tested for normal distribution using the Shapiro-Wilk normality test. […] The values were normalized to controls within the group, and data were pooled for comparison between groups. Kruskal-Wallis test was used for comparing the overall effect of ringer, AA-EC01 and AANC on benzamil-sensitive Isc and TEER, and Mann Whitney U test was used for pairwise comparison within the group and for comparison between basal values for each cytokine at zero ng/mL or day zero with each concentration and time period studied. P<0.05 was considered significant, and NS indicates not significant.

Substance: IL-13: Th2 cytokine (Abcam) added to HBEC culture medium
- TEER, normalized to control (IL-13 2 ng/mL, 14 days): 59.9±7.6%
- TEER, normalized to control (maximum reduction) (IL-13 4 ng/mL, 14 days): 41.3±6.9%
- TEER, normalized to control (maximum reduction) (IL-13 20 ng/mL, day 10): 48.7±3.6%
